Test results published in article PMC8851771, “Molecular action of larvicidal flavonoids on ecdysteroidogenic glutathione S-transferase Noppera-bo in Aedes aegypti” (BMC Biology, 2022).
Where two headings read alike, the source gives them in different places.

What was measured:
[1] = tested on: DmNobo Asp-113 substituted with Ala; set-up: method as in PMID 32241910; settings: cited from earlier work
AeNobo-WT = AeNobo-WT (Aedes aegypti, UniProt A0A1S4FIB3); test: GST activity inhibition assay with 3,4-DNADCF, wild-type AeNobo; format: biochemical
Description: We prepared a purified AeNobo recombinant protein (220-aa length) using an Escherichia coli protein expression system. The GST enzymatic activity was examined using the fluorogenic artificial substrate 3,4-dinitrobenzamidedichlorofluorescein (3,4-DNADCF).
The IC50 value was measured using an in vitro assay system as described previously. […] Five microliters of each diluted compound solution was mixed with 245 μL of solution A (100 mM sodium phosphate buffer at pH 6.5, 0.01% Tween 20, 2 mM GSH, and 50 ng/mL AeNobo-WT, 100 ng/mL AeNobo-E113A, and 200 ng/mL F39L). One hundred microliters of the mixture was dispensed into wells of a 96-well plate. One hundred microliters of solution B (0.2 μM 3,4-DNADCF and 100 mM sodium phosphate buffer at pH 6.5) was added to each well. In summary, the final reaction system comprised 100 mM sodium phosphate buffer (pH 6.5), 1 mM GSH, 0.005% Tween 20, 0.1 μM 3,4-DNACDF, and 25 ng/mL AeNobo, 50 ng/mL AeNobo-E113A, or 100 ng/mL AeNobo-F39L protein. The fluorescence intensity derived from 4-GS-3-NADCF, a product of this reaction, was measured for 3 min. IC50 values were estimated as described previously. The enzymatic assays under each condition were performed at least twice independently.
To identify inhibitors of AeNobo enzymatic activity, a high-throughput screening was performed as described in a previous study. Briefly, a core library of 9600 compounds obtained from the Drug Discovery Initiative, The University of Tokyo, was utilized for screening. In this screen, the enzymatic activity of AeNobo was detected using 3,4-DNADCF [29]. […] Then, 1 μL of solution B (4 μM 3,4-DNADCF, 100 mM sodium phosphate at pH 6.5, and 0.005% Tween 20) was added into each well. In summary, the reaction system comprised 5.6 ng/mL AeNobo protein, 2 μM 3,4-DNADCF, 1 mM GSH, 0.005% Tween 20, and 100 mM sodium phosphate at pH 6.5, together with each compound at 10 μM. The plate was incubated for 30 min at 25–27 °C and 2 μL of 10 mM N-ethylmaleimide was added into each well to stop the reaction. […] For the second screen, we assayed the IC50 values of the compounds against the enzymatic activity of AeNobo.

DmNobo [2] = target: T1, DmNobo (Drosophila melanogaster, UniProt Q7JYX0); settings: read-out: IC50 against DmNobo; cited from earlier work
T1 construct: made in house; host or cells: E. coli

DmNobo [3] = target: T1, DmNobo; test: GST activity inhibition assay with 3,4-DNADCF, DmNobo; format: biochemical
AeNobo-F39L = AeNobo-F39L (Aedes aegypti, UniProt A0A1S4FIB3, F90L); test: GST activity inhibition assay with 3,4-DNADCF, AeNobo-F39L; format: biochemical
Description: (§1) pCold III plasmids expressing the AeNobo-E113A and AeNobo-F39L were constructed using KOD-Plus-Mutagenesis Kit (Toyobo). The following primers were used: E113A-F (5′-[…]-3′) and E113A-R (5′-[…]-3′) for AeNobo-E113A and F39L-F (5′-[…]-3′) and F39L-R (5′-[…]-3′) for AeNobo-F39L. We conducted inverse PCR using KOD-plus polymerase, pColdIII/AeNobo-WT plasmid, and the primer pair described above under the following conditions: pre-denaturation at 94 °C for 2 min, denaturation at 98 °C for 10 s, and extension at 68 °C for 6 min for 6 cycles. The PCR products were treated with DpnI at 37 °C for 1 h, followed by self-ligation using T4 polynucleotide kinase and Ligation High. After the transformation of DH5α bacteria using the ligation products, we extracted plasmid DNA from the colonies and verified their sequences to confirm whether the appropriate point mutations were introduced.
The IC50 value was measured using an in vitro assay system as described previously. A dilution series of compounds, ranging from 2.5 mM to 0.127 μM for DMG and from 2.5 mM to 4.9 μM for other compounds, was prepared by 2-fold serial dilution in DMSO. […] The fluorescence intensity derived from 4-GS-3-NADCF, a product of this reaction, was measured for 3 min. […]

estrogen receptors (ERs) = settings: does not promote ER binding activity to estrogen response elements; cited from earlier work
AeNobo-E113A = AeNobo-E113A (Aedes aegypti, UniProt A0A1S4FIB3, E164K); test: GST activity inhibition assay with 3,4-DNADCF, AeNobo-E113A; format: biochemical; settings: at a concentration of 25 μM
Text: The importance of the Glu-113–flavonoid hydrogen bond for flavonoid binding was biochemically examined with a recombinant mutated AeNobo protein carrying an E113A aa substitution (AeNobo-E113A).
as §1
The IC50 value was measured using an in vitro assay system as described previously. A dilution series of compounds, ranging from 2.5 mM to 0.127 μM for DMG and from 2.5 mM to 4.9 μM for other compounds, was prepared by 2-fold serial dilution in DMSO. Five microliters of each diluted compound solution was mixed with 245 μL of solution A (100 mM sodium phosphate buffer at pH 6.5, 0.01% Tween 20, 2 mM GSH, and 50 ng/mL AeNobo-WT, 100 ng/mL AeNobo-E113A, and 200 ng/mL F39L). One hundred microliters of the mixture was dispensed into wells of a 96-well plate. One hundred microliters of solution B (0.2 μM 3,4-DNADCF and 100 mM sodium phosphate buffer at pH 6.5) was added to each well. In summary, the final reaction system comprised 100 mM sodium phosphate buffer (pH 6.5), 1 mM GSH, 0.005% Tween 20, 0.1 μM 3,4-DNACDF, and 25 ng/mL AeNobo, 50 ng/mL AeNobo-E113A, or 100 ng/mL AeNobo-F39L protein. The fluorescence intensity derived from 4-GS-3-NADCF, a product of this reaction, was measured for 3 min. IC50 values were estimated as described previously. The enzymatic assays under each condition were performed at least twice independently.

[4] = tested on: Ae. aegypti 1st instar larvae; test: Aedes aegypti larvicidal assay; format: in vivo; settings: above 10 ppm, 24-h treatment
Description: To test this, we conducted larvicidal assays using Ae. aegypti larvae.
The dried eggs on filter papers were soaked in distilled water. Three hours after soaking, the first instar larvae were transferred to 30 mL of fresh distilled water in a 50-mL plastic cup with a lid containing air holes. In the rearing water, 2 mg of the powdered goldfish food (Hikari Medium Grain, Kyorin Co., Ltd.) was added to each cup as food for Ae. aegypti larvae. In each cup, we poured the 30 mL rearing water containing 1 ppm, 10 ppm, or 100 ppm of the compounds with 0.1% ethanol at the final concentration, followed by placing 20 larvae. Twenty-four hours after the addition of flavonoids, the number of living and dead larvae was recorded. Larvacidal assays under each condition were performed 5 times independently. The larval instars 24 h after the addition of DMG were identified by measuring the transverse diameter of the Ae. aegypti larval head. Photographs of whole bodies of larvae were taken and the head diameter was then measured using ImageJ software.

[5] = tested on: D. melanogaster 1st instar larvae; test: Drosophila melanogaster survival assay; format: in vivo; settings: 10 ppm in food
Description: We also conducted larvicidal assays using D. melanogaster. When we placed D. melanogaster 1st instar larvae in food containing 10 ppm DMG, pupariation rate and pupation timing were not affected when compared with a control group (Additional file 1: Figure S10). […] A […] DMG stock solution was prepared in 100% DMSO. Ten microliters of the DMG stock solution or 10 μL of DMSO alone was mixed with 10 g of standard cornmeal medium and 1 mL of autoclaved water. The volume of the mixed food was approximately 10 mL, and therefore, the food contained 0.1% DMSO with or without 10 ppm DMG. Two grams of the food were dispensed into each 12-mL plastic vial (Sarstedt). D. melanogaster wild-type Canton-S were given the opportunity to lay eggs on a grape juice agar with yeast paste for 12 h. After egg collection, the embryos were reared at 25 °C for 24 h, and then 20 1st instar larvae were transferred to each vial and reared at 25°C. The numbers of pupae were counted daily, and the timing of pupation was recorded.

Chain of AeNobo-WT (A0A1S4FIB3 entry or part of it): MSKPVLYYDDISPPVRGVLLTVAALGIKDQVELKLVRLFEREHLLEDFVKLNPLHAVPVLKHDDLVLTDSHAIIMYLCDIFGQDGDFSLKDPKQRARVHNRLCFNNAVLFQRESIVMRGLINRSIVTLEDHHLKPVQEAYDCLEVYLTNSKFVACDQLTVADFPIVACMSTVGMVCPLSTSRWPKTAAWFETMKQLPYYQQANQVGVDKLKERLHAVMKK
T1 sequence (Q7JYX0 whole entry): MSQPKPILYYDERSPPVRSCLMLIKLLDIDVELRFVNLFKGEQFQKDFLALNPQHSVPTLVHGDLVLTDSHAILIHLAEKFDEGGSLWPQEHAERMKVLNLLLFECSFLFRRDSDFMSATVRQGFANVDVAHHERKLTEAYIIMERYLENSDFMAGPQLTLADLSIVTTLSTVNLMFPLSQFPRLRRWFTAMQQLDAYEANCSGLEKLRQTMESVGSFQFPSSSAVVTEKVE
Chain of AeNobo-E113A (A0A1S4FIB3 entry or part of it E164K): as the sequence (A0A1S4FIB3 entry or part of it) above, with E113K counted along it
Chain of AeNobo-F39L (A0A1S4FIB3 entry or part of it F90L): as the sequence (A0A1S4FIB3 entry or part of it) above, with F39L counted along it

In the case of `C[C@]12CC[C@@H]3c4ccc(O)cc4CC[C@H]3[C@@H]1CC[C@@H]2O` [17β-estradiol], the “Inhibition of enzymatic activity of DmNobo with Asp-113 substituted with Ala” value [1] is given as “does not inhibit”, the “IC50 against AeNobo relative to that against DmNobo” value (AeNobo-WT; higher against AeNobo) is given as “approximately 10 fold” and the IC50 (AeNobo-WT; text and figures, 3,4-DNADCF, read-out: IC50 against AeNobo (WT)) is given as 21.3 µM. The IC50 (DmNobo [2]) was 1200 to 2300 nM and the IC50 (DmNobo [3]) was 2330 ± 80 nM.

In the case of `O=c1c(-c2ccc(O)cc2)coc2cc(O)c(O)cc12` [Desmethylglycitein, 4′,6,7-trihydroxyisoflavone], the IC50 (AeNobo-F39L) is given as 1160 nM, the IC50 (AeNobo-WT; read-out: IC50 (μM) (mean ± s.d.)) is given as 0.293 ± 0.012 µM and the Estrogenic activity (estrogen receptors (ERs)) is given as “does not exhibit estrogenic activity”. For the same compound, the “Inhibition of enzymatic activity of AeNobo-E113A” value (AeNobo-E113A) was “not inhibited”, the Lethality [4] was “high lethality” and the Development to adults [5] was “most larvae became adults”. For the same compound, the “Pupariation rate and pupation timing compared with control” value ([5]; 1st instar larvae) was “not affected”.
